The target in experiment [1] is T1, Endothelin-1 receptor (Homo sapiens) (UniProt P25101).
T1 sequence (whole entry): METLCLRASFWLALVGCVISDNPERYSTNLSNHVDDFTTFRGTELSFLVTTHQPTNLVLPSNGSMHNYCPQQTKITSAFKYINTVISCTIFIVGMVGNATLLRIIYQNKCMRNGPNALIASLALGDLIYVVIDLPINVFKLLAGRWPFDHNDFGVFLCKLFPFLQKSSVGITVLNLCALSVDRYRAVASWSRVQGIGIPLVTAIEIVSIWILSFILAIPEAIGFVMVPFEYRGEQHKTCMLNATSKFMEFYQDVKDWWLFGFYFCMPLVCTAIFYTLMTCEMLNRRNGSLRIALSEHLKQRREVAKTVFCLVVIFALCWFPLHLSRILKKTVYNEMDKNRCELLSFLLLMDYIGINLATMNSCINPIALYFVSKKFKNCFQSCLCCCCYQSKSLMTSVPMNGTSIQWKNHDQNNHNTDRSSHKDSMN
Kind of experiment: Competitive binding to Endothelin A receptor by displacement of [125I]ET1 (Relative IC50 was calculated as IC50 of compound/IC50 of TBC11251).

For experiment [2], the target named is Endothelin receptor, ET-A/ET-B (Homo sapiens) (UniProt P24530+P25101). In words: Compound was evaluated for the selectivity of ET-A receptors (ET-B IC50/ ET-A IC50). It counts as protein assay.
Endothelin receptor, ET-A/ET-B (Homo sapiens), sequence (P24530 whole entry, looked up, one chain of several): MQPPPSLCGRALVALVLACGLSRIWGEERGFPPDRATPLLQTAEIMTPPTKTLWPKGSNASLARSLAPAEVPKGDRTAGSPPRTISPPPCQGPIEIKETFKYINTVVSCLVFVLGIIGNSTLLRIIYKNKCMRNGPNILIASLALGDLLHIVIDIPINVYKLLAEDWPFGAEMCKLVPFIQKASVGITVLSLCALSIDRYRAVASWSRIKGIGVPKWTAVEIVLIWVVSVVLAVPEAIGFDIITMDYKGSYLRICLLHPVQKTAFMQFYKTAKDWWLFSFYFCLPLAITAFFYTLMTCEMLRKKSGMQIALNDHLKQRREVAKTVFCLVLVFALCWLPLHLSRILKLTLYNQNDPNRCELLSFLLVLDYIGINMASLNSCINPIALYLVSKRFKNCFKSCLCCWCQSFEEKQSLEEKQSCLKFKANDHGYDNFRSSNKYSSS

With `Cc1cc(C)c(NC(=O)c2sccc2S(=O)(=O)Nc2noc(C)c2Cl)c(C)c1CO`, in experiment [1], the Relative ET-A IC50 was 0.06. The Selectivity in experiment [2] is 3500.

For the compound `Cc1cc(C)c(NC(=O)c2sccc2S(=O)(=O)Nc2onc(C)c2Cl)c(C)c1COC(=S)N(C)C`, the Relative ET-A IC50 in experiment [1] is 0.21. For the same compound, the Selectivity in experiment [2] came to 16200. With `Cc1noc(NS(=O)(=O)c2ccsc2C(=O)Nc2c(C)c(CC#N)c(C)c(CC#N)c2C)c1Cl`, in experiment [1], the Relative ET-A IC50 is 3110. This compound also registered a Selectivity in experiment [2] of 3. On the same counts, the results for `Cc1cc(C)c(OS(=O)(=O)N(C)C)c(C)c1NC(=O)c1sccc1S(=O)(=O)Nc1onc(C)c1Cl` are 2.3 and 1630.

`Cc1cc(C)c(OC(=S)N(C)C)c(C)c1NC(=O)c1sccc1S(=O)(=O)Nc1onc(C)c1Cl`: the Relative ET-A IC50 in experiment [1] is 0.09. In experiment [2], the Selectivity is 22600. For `Cc1cc2c(cc1C(CCBr)C(=O)c1sccc1S(=O)(=O)Nc1onc(C)c1Cl)OCO2` (centres undefined), the Relative ET-A IC50 in experiment [1] was 38.4. This compound returned a Selectivity in experiment [2] of 59. Consider `Cc1cc2c(cc1C(CC(=O)O)C(=O)c1sccc1S(=O)(=O)Nc1onc(C)c1Cl)OCO2` (centres undefined), for which the Relative ET-A IC50 in experiment [1] is 5.36. For `Cc1cc(C)c(OCC(=O)O)c(C)c1NC(=O)c1sccc1S(=O)(=O)Nc1onc(C)c1Cl`, the Relative ET-A IC50 in experiment [1] was 0.05. The Selectivity in experiment [2] is 23000. For `Cc1cc(C)c(N2CCCC2)c(C)c1NC(=O)c1sccc1S(=O)(=O)Nc1onc(C)c1Cl`, in experiment [1], the Relative ET-A IC50 is 0.15. As for `Cc1cc(C)c(C(=O)O)c(C)c1NC(=O)c1sccc1S(=O)(=O)Nc1onc(C)c1Cl`, the Relative ET-A IC50 in experiment [1] was 0.79. For the compound `Cc1cc(C)c(CNC(=O)c2sccc2S(=O)(=O)Nc2onc(C)c2Cl)c(C)c1`, in experiment [1], the Relative ET-A IC50 was 1.15e+06. For the same compound, in experiment [2], the Selectivity came to 0.004. For `Cc1cc(C)c(NC(=O)c2sccc2S(=O)(=O)Nc2onc(C)c2C)c(C)c1CO`, in that order: 0.07 and 30400. For `Cc1cc(C)c(CNC(=O)c2sccc2S(=O)(=O)Nc2onc(C)c2Cl)c(C)c1CC#N`, in that order: 56.4 and 95. On the same counts, the results for `CC(=O)Oc1c(C)cc(C)c(NC(=O)c2sccc2S(=O)(=O)Nc2onc(C)c2Cl)c1C` are 0.11 and 6970. For `Cc1cc2c(cc1C(C)C(=O)c1sccc1S(=O)(=O)Nc1onc(C)c1Cl)OCO2` (centres undefined), in experiment [1], the Relative ET-A IC50 is 5.63. `COC(=O)c1c(C)cc(C)c(NC(=O)c2sccc2S(=O)(=O)Nc2onc(C)c2Cl)c1C`: in experiment [1], the Relative ET-A IC50 was 0.21. The compound also yielded a Selectivity in experiment [2] of 41900. `Cc1cc(C)c(NC(=O)c2sccc2S(=O)(=O)Nc2onc(C)c2Cl)c(C)c1CN(C)C`: the Relative ET-A IC50 in experiment [1] was 0.88.

Regarding `CCOC(=O)N(C(=O)c1sccc1S(=O)(=O)Nc1onc(C)c1Cl)c1c(C)cc(C)c(O)c1C`, in experiment [1], the Relative ET-A IC50 was 5.56. This compound registered a Selectivity in experiment [2] of 1530. For `Cc1cc(C)c(OCC2CC2)c(C)c1NC(=O)c1sccc1S(=O)(=O)Nc1onc(C)c1Cl`, in experiment [1], the Relative ET-A IC50 is 0.07. In experiment [2], this compound showed a Selectivity of 59400. Take `COCCOCCOCC(=O)Oc1c(C)cc(C)c(NC(=O)c2sccc2S(=O)(=O)Nc2onc(C)c2Cl)c1C`: the Relative ET-A IC50 in experiment [1] is 0.5. On to `CC(=O)OCc1c(C)cc(C)c(NC(=O)c2sccc2S(=O)(=O)Nc2onc(C)c2C)c1C`, for which, in experiment [1], the Relative ET-A IC50 was 0.06. In experiment [2], this compound displayed a Selectivity of 160000. On the same counts, the results for `Cc1noc(NS(=O)(=O)c2ccsc2C(=O)Nc2c(C)c(C)c(C)c(C)c2C)c1Cl` are 1.97 and 1080.

As to `Cc1cc(C)c(NC(=O)c2sccc2S(=O)(=O)Nc2onc(C)c2Cl)c(C)c1CC(=O)O`, the Relative ET-A IC50 in experiment [1] was 0.12. Also, in experiment [2], the Selectivity came to 59900. On the same counts, the results for `COC(=O)Cc1c(C)cc(C)c(NC(=O)c2sccc2S(=O)(=O)Nc2onc(C)c2Cl)c1C` are 0.07 and 114000. With `Cc1cc(C)c(CC(=O)c2sccc2S(=O)(=O)Nc2onc(C)c2Cl)c(C)c1`, in experiment [1], the Relative ET-A IC50 was 0.24. The compound further displayed a Selectivity in experiment [2] of 9390.
